Assays:
AMBEL (Ragweed, Common) [1] = assay: Postemergence herbicidal evaluation; assay type: in vivo, Ambrosia artemisifolia; conditions: postemergence
Procedure, shortened: (§1)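 ~2-wk seedlings; postemergence spray, 40 psi; vehicle 1:1 acetone:water + 0.5% Tween 20; rate ≈0.0156–0.500 kg/ha; greenhouse hold; scored 4–5 wk after treatment, 0–9 scale vs control; repeat tests averaged.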

[2] = system: IPOHE (Morningglory, Ivyleaf); assay: Postemergence herbicidal evaluation; assay type: in vivo, Ipomoea hederacea; conditions: postemergence
Procedure, shortened: as §1

[3] = system: GLXMAW (Soybean, Williams); assay: Postemergence herbicidal evaluation; assay type: in vivo, Glycine max, (L.) Merr. cv Williams; conditions: postemergence
Procedure, shortened: as §1

ZEAMX (Corn, Field) = assay: Postemergence herbicidal evaluation; assay type: in vivo, Zea mays; conditions: postemergence
Procedure, shortened: as §1

ABUTH (Velvetleaf) = assay: Preemergence herbicidal evaluation; assay type: in vivo, Abutilon theophrasti; conditions: preemergence, rated 4-5 weeks after treatment, 0-9 scale
Procedure, shortened: (§2)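 Test compound, dissolved in aqueous acetone, was sprayed over planted soil cups at an equivalent of about 0.0156 to 0.500 kg/ha; seeds had been mixed with potting soil. Greenhouse growth followed, with visual 0-9 scoring of injury at four to five weeks.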

AMBEL (Ragweed, Common) [4] = assay: Preemergence herbicidal evaluation; assay type: in vivo, Ambrosia artemisifolia; conditions: preemergence, rated 4-5 weeks after treatment, 0-9 scale
Procedure, shortened: as §2

CASOB (Sicklepod) = assay: Preemergence herbicidal evaluation; assay type: in vivo, Cassia obtusifolia; conditions: preemergence, rated 4-5 weeks after treatment, 0-9 scale
Procedure, shortened: as §2

GALAP (Galium) = assay: Preemergence herbicidal evaluation; assay type: in vivo, Galium aparine; conditions: preemergence, rated 4-5 weeks after treatment, 0-9 scale
Procedure, shortened: as §2

ECHCG (Barnyardgrass) = assay: Preemergence herbicidal evaluation; assay type: in vivo, Echinochloa crus-galli; conditions: preemergence, rated 4-5 weeks after treatment, 0-9 scale
Procedure, shortened: as §2

SETVI (Foxtail, Green) = assay: Preemergence herbicidal evaluation; assay type: in vivo, Setaria viridis; conditions: preemergence, rated 4-5 weeks after treatment, 0-9 scale
Procedure, shortened: as §2

[5] = system: GLXMAW (Soybean, Williams); assay: Preemergence herbicidal evaluation; assay type: in vivo, Glycine max, (L.) Merr. cv Williams; conditions: preemergence, rated 4-5 weeks after treatment, 0-9 scale
Procedure, shortened: as §2

CYPSE (Flatsedge) = assay: Preemergence weed control under flooded paddy conditions; assay type: in vivo, Cyperus serotinus; conditions: rated 3-4 weeks after treatment
Procedure, shortened: (§3)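 Greenhouse paddy assay. Acetone/water (50/50 v/v) solutions dosed into flood water, equivalent to about 0.0313 to 0.500 kg/ha active ingredient, over seeds planted 0.5 cm deep in silt loam. Score: 0-9 visual, based on stand, vigor, malformation, size and chlorosis, 3 to 4 weeks after treatment.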

[6] = system: SAGPY (Arrowhead (Pygmaea)); assay: as above; assay type: in vivo, Sagittaria pygmaea; conditions: rated 3-4 weeks after treatment
Procedure, shortened: as §3

[7] = system: ECHORC (Watergrass (Calif.)); assay: Postemergence weed control under flooded paddy conditions; assay type: in vivo, Echinochloa oryzoides; conditions: postemergence weeds, rated 3 to 4 weeks after treatment
Procedure, shortened: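 Flood-water application, about 0.0313–0.500 kg/ha a.i. in aqueous/acetone 50/50 v/v; water depth 1.5–3 cm throughout. Weeds 3–5 cm, rice 1.5–2.5 leaf. Greenhouse; 0–9 visual rating vs control at 3–4 wk.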

C=CCN1C(=O)C(CC(=O)OC(C)C(=O)OCC)SC1=Nc1cc(-n2c(=O)ccn(C)c2=O)c(F)cc1Cl [Compound 94, 3-Allyl-2-{{2-chloro-5-[3,6-dihydro-3-methyl-2,6-dioxo-1(2H)-pyrimidinyl]-4-fluorophenyl}imino}-4-oxo-5-thiazolidineacetic acid, ester with ethyl lactate, (R,S)-]
9.0: AMBEL herbicidal rating (AMBEL (Ragweed, Common) [1]; rate 0.0315 kg/ha) | AMBEL herbicidal rating (AMBEL (Ragweed, Common) [1]; rate 0.0630 kg/ha) | IPOHE herbicidal rating ([2]; rate 0.0158 kg/ha) | IPOHE herbicidal rating ([2]; rate 0.0315 kg/ha) | IPOHE herbicidal rating ([2]; rate 0.0630 kg/ha) | GLXMAW herbicidal rating ([3]; rate 0.0158 kg/ha) | GLXMAW herbicidal rating ([3]; rate 0.0315 kg/ha) | GLXMAW herbicidal rating ([3]; rate 0.0630 kg/ha) | ZEAMX herbicidal rating (ZEAMX (Corn, Field); rate 0.0630 kg/ha) | ABUTH rating (ABUTH (Velvetleaf); 0.0313 kg/ha) | ABUTH rating (ABUTH (Velvetleaf); 0.0625 kg/ha) | ABUTH rating (ABUTH (Velvetleaf); 0.1250 kg/ha) | ABUTH rating (ABUTH (Velvetleaf); 0.2500 kg/ha) | AMBEL rating (AMBEL (Ragweed, Common) [4]; 0.1250 kg/ha) | AMBEL rating (AMBEL (Ragweed, Common) [4]; 0.2500 kg/ha) | GALAP rating (GALAP (Galium); 0.2500 kg/ha) | SETVI rating (SETVI (Foxtail, Green); 0.2500 kg/ha) | CYPSE herbicidal effect rating (CYPSE (Flatsedge); 0.2500 kg/ha) | SAGPY herbicidal effect rating ([6]; 0.2500 kg/ha)
7.0: AMBEL herbicidal rating (AMBEL (Ragweed, Common) [1]; rate 0.0158 kg/ha) | Herbicidal rating ECHORC ([7]; Rate 0.2500 kg/ha)
0.0: ABUTH rating (ABUTH (Velvetleaf); 0.0156 kg/ha) | AMBEL rating (AMBEL (Ragweed, Common) [4]; 0.0156 kg/ha) | AMBEL rating (AMBEL (Ragweed, Common) [4]; 0.0313 kg/ha) | CASOB rating (CASOB (Sicklepod); 0.0156 kg/ha) | CASOB rating (CASOB (Sicklepod); 0.0313 kg/ha) | CASOB rating (CASOB (Sicklepod); 0.0625 kg/ha) | CASOB rating (CASOB (Sicklepod); 0.1250 kg/ha) | CASOB rating (CASOB (Sicklepod); 0.2500 kg/ha) | GALAP rating (GALAP (Galium); 0.0156 kg/ha) | GALAP rating (GALAP (Galium); 0.0313 kg/ha) | GALAP rating (GALAP (Galium); 0.0625 kg/ha) | ECHCG rating (ECHCG (Barnyardgrass); 0.0156 kg/ha) | ECHCG rating (ECHCG (Barnyardgrass); 0.0313 kg/ha) | ECHCG rating (ECHCG (Barnyardgrass); 0.0625 kg/ha) | ECHCG rating (ECHCG (Barnyardgrass); 0.1250 kg/ha) | ECHCG rating (ECHCG (Barnyardgrass); 0.2500 kg/ha) | SETVI rating (SETVI (Foxtail, Green); 0.0156 kg/ha) | SETVI rating (SETVI (Foxtail, Green); 0.0313 kg/ha) | SETVI rating (SETVI (Foxtail, Green); 0.0625 kg/ha) | GLXMAW rating ([5]; 0.0156 kg/ha) | GLXMAW rating ([5]; 0.0313 kg/ha) | GLXMAW rating ([5]; 0.0625 kg/ha) | GLXMAW rating ([5]; 0.1250 kg/ha) | SAGPY herbicidal effect rating ([6]; 0.0313 kg/ha) | SAGPY herbicidal effect rating ([6]; 0.0625 kg/ha) | Herbicidal rating ECHORC ([7]; Rate 0.0313 kg/ha) | Herbicidal rating ECHORC ([7]; Rate 0.0625 kg/ha)
4.0: AMBEL rating (AMBEL (Ragweed, Common) [4]; 0.0625 kg/ha) | SETVI rating (SETVI (Foxtail, Green); 0.1250 kg/ha) | GLXMAW rating ([5]; 0.2500 kg/ha)
3.0: GALAP rating (GALAP (Galium); 0.1250 kg/ha)
2.0: Herbicidal rating ECHORC ([7]; Rate 0.1250 kg/ha)
8.5: ZEAMX herbicidal rating (ZEAMX (Corn, Field); rate 0.0158 kg/ha) | ZEAMX herbicidal rating (ZEAMX (Corn, Field); rate 0.0315 kg/ha)
5.0: SAGPY herbicidal effect rating ([6]; 0.1250 kg/ha)
6.0: CYPSE herbicidal effect rating (CYPSE (Flatsedge); 0.1250 kg/ha)
